# Tests used:
# [1] = system: CAL-62 (Thyroid Gland Carcinoma); assay: Bliss excess, mean over the matrix (fraction); higher = more synergy
# Method in brief: (§1)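 Bliss excess equals the observed combination effect minus the expected value EA + EB − EA·EB, where EA and EB are the effects of each agent alone. Combination Emax is the second-highest inhibition within the matrix. Inhibition was scaled from CellTiter-Glo 2.0 luminescence, with 0 set by vehicle wells and 1 by blank wells, after 72 hours of two-drug dosing of cells plated in 1536-well plates.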
# IST-MES1 (Mesothelioma) [2] = assay: as above
# Method in brief: as §1
# [3] = system: PC-3_[JPC-3] (Lung Adenocarcinoma); assay: as above
# Method in brief: as §1
# [4] = system: RKN (Other Solid Carcinomas); assay: as above
# Method in brief: as §1
# [5] = system: CAL-62 (Thyroid Gland Carcinoma); assay: combination Emax (second highest fraction inhibited in the dose matrix, 72 h); higher = more inhibition; extreme values may be limits of the assay
# Method in brief: as §1
# [6] = system: HSC-39 (Gastric Carcinoma); assay: as above
# Method in brief: as §1
# IST-MES1 (Mesothelioma) [7] = assay: as above
# Method in brief: as §1
# [8] = system: L-1236 (Hodgkin's Lymphoma); assay: as above
# Method in brief: as §1
# [9] = system: MKN45 (Gastric Carcinoma); assay: as above
# Method in brief: as §1
# [10] = system: OPM-2 (Plasma Cell Myeloma); assay: as above
# Method in brief: as §1
# [11] = system: PANC-03-27 (Pancreatic Carcinoma); assay: as above
# Method in brief: as §1
# [12] = system: PC-3_[JPC-3] (Lung Adenocarcinoma); assay: as above
# Method in brief: as §1
# [13] = system: PSN1 (Pancreatic Carcinoma); assay: as above
# Method in brief: as §1
# [14] = system: RCM-1 (Colorectal Carcinoma); assay: as above
# Method in brief: as §1
# SF539 (Glioblastoma) = assay: as above
# Method in brief: as §1
# [15] = system: SHP-77 (Small Cell Lung Carcinoma); assay: as above
# Method in brief: as §1
# SK-MEL-2 (Melanoma) = assay: as above
# Method in brief: as §1
# [16] = system: SK-PN-DW (Other Solid Carcinomas); assay: as above
# Method in brief: as §1
# [17] = system: TE-8 (Esophageal Squamous Cell Carcinoma); assay: as above
# Method in brief: as §1
# [18] = system: VAL (B-Cell Non-Hodgkin's Lymphoma); assay: as above
# Method in brief: as §1
SMILES,Bliss excess [1],Bliss excess (IST-MES1 (Mesothelioma) [2]),Bliss excess [3],Bliss excess [4],combination Emax [5],combination Emax [6],combination Emax (IST-MES1 (Mesothelioma) [7]),combination Emax [8],combination Emax [9],combination Emax [10],combination Emax [11],combination Emax [12],combination Emax [13],combination Emax [14],combination Emax (SF539 (Glioblastoma)),combination Emax [15],combination Emax (SK-MEL-2 (Melanoma)),combination Emax [16],combination Emax [17],combination Emax [18]
"Cc1cc2ncnn2cc1Nc1ncc2c(n1)n(C1CCOCC1)c(=O)n2C [AZD7648] + COc1cc([C@@H]2c3cc4c(cc3[C@@H](O[C@@H]3O[C@@H]5CO[C@@H](C)O[C@H]5[C@H](O)[C@H]3O)[C@H]3COC(=O)[C@H]23)OCO4)cc(OC)c1O [Etoposide] (first compound max 10 µM, 7x7, partner max 10 µM)",0.127,0.116,0.0079,0.0299,0.829,0.854,0.685,0.845,0.582,0.788,0.619,0.415,0.834,0.515,0.934,0.546,0.166,0.918,0.602,0.905
"C[C@@H](Nc1cc(F)cc(F)c1)c1cc(C(=O)N(C)C)cc2c(=O)cc(N3CCOCC3)oc12 [AZD8186] + CC(=O)c1c(C)c2cnc(Nc3ccc(N4CCNCC4)cn3)nc2n(C2CCCC2)c1=O [Palbociclib] (first compound max 10 µM, 7x7, partner max 10 µM)",0.0294,0.0167,-0.023,-0.0328,0.36,0.813,0.454,0.697,0.534,0.563,0.513,0.369,0.558,0.335,0.412,0.337,0,0.644,0.502,0.707
"Cc1c2c(nn1C)CSCc1cc(n(C)n1)CSc1cc(c3ccccc3c1)OCCCc1c(C(=O)O)n(C)c3c-2c(Cl)ccc13 [AZD5991] + CS(=O)(=O)CCNCc1ccc(-c2ccc3ncnc(Nc4ccc(OCc5cccc(F)c5)c(Cl)c4)c3c2)o1 [Lapatinib] (first compound max 1 µM, 7x7, partner max 10 µM)",-0.0118,0.0139,0.0072,-0.0174,0.237,1,0.615,0.798,0.245,1,0.558,0.833,0.316,0.409,0.479,0.42,0.955,0.956,0.409,0.677
"Cc1c2c(nn1C)CSCc1cc(n(C)n1)CSc1cc(c3ccccc3c1)OCCCc1c(C(=O)O)n(C)c3c-2c(Cl)ccc13 [AZD5991] + CC(=O)O[C@H]1C(=O)[C@@]2(C)[C@H]([C@H](OC(=O)c3ccccc3)[C@]3(O)C[C@H](OC(=O)[C@H](O)[C@@H](NC(=O)c4ccccc4)c4ccccc4)C(C)=C1C3(C)C)[C@]1(OC(C)=O)CO[C@@H]1C[C@@H]2O [Paclitaxel] (first compound max 1 µM, 7x7, partner max 3 µM)",-0.0941,-0.007,-0.0256,-0.0775,0.81,1,0.651,0.846,0.709,1,0.688,0.58,0.746,0.342,0.971,0.971,1,0.952,0.702,0.765
"CC1(C)CCC(CN2CCN(c3ccc(C(=O)NS(=O)(=O)c4ccc(NCC5CCOCC5)c([N+](=O)[O-])c4)c(Oc4cnc5[nH]ccc5c4)c3)CC2)=C(c2ccc(Cl)cc2)C1 [Venetoclax] + CS(=O)(=O)CCNCc1ccc(-c2ccc3ncnc(Nc4ccc(OCc5cccc(F)c5)c(Cl)c4)c3c2)o1 [Lapatinib] (first compound max 1 µM, 7x7, partner max 10 µM)",-0.0442,-0.0357,-0.0332,-0.0482,0.114,0.915,0.313,0.655,0.242,0.64,0.5,0.568,0.177,0.42,0.309,0.344,0.174,0.455,0.263,1
"Cc1c2c(nn1C)CSCc1cc(n(C)n1)CSc1cc(c3ccccc3c1)OCCCc1c(C(=O)O)n(C)c3c-2c(Cl)ccc13 [AZD5991] + Nc1ccn([C@@H]2O[C@H](CO)[C@@H](O)C2(F)F)c(=O)n1 [Gemcitabine] (first compound max 1 µM, 7x7, partner max 0.3 µM)",-0.024,-0.0208,-0.0333,-0.0708,0.751,1,0.742,0.806,0.64,1,0.549,0.58,0.846,0.392,0.886,0.595,0.925,0.815,0.574,0.847
"C[C@@H](Oc1cc(-c2cnn(C3CCNCC3)c2)cnc1N)c1c(Cl)ccc(F)c1Cl [Crizotinib] + Cn1cnc2c(F)c(Nc3ccc(Br)cc3Cl)c(C(=O)NOCCO)cc21 [Selumetinib] (first compound max 10 µM, 7x7, partner max 10 µM)",-0.0219,-0.0311,-0.0549,0.0181,0.564,0.975,0.864,0.975,0.902,0.985,0.543,0.242,0.963,0.761,0.764,0.411,0.881,0.739,0.631,0.758
